Source: patent publication US8242101B2, “Leukemia treatment method and composition” (University of South Florida, priority 2003, dated 2012)
“Also recorded” adds a separate entry of the source.

Tests used:
[1] = tested on: FLT-3 and p-FLT-3 on MV cells; experiment: Flow cytometry (FCM) assay of surface FLT-3 and p-FLT-3 on MV cells; assay type: cell-based, human; settings: for surface expression of p-FLT-3: FCM
Experimental: (§1) Simultaneous measurement of surface FLT-3 kinase and Phospho (P Y591) FLT-3 kinase in Acute Leukemic cells using a flow cytometric assay.
(§2) Leukemic cells are harvested by spinning at 1000 rpm at 4 deg for 5 minutes. The cells are washed twice with cold PBS (1×). Equal numbers of cells are utilized for FLT-3 and p-FLT-3 analyses.
(§3) In the assay to detect surface FLT-3 expression, shown in FIG. 8, the cells 10 are incubated on ice for thirty minutes 20 in PBS (1×) 30 containing 3% FBS (blocking buffer) 40. Subsequently, the cells are washed twice with cold PBS (1×). Cells are then incubated with either 0.2 Tg of anti-FLT-3 antibody 50 (sc-19635, Santa Cruz Biotechnology, Calif.) or concentration-matched isotype, control antibody (IgG1, Caltag, Burlingame, Calif.) 60 diluted in the blocking buffer and kept on ice for one hour 70. Cells are then washed twice in PBS (1×) and incubated in FITC-conjugated secondary antibody (Molecular Probes, Eugene, Oreg.) 80 for additional thirty minutes on ice 90. The cells are then rinsed twice with PBS (1×) and resuspended in 400 TL PBS (1×) 100. The fluorescence is measured by FACScan Cytometer (San Jose, Calif.).
To determine the p-FLT-3 expression, leukemia cells are fixed and permeabilized. Referring now to the flowchart in FIG. 9, cells 10 are fixed in 1% formaldehyde 20 at 37 degrees for ten minutes 30, followed by incubation on ice for ten minutes. Cells are then spun down and permeabilized by resuspending them in ice cold 90% methanol 40 for thirty minutes. Following this, cells are washed twice in the blocking buffer (PBS (1×) containing 0.5% BSA) 50 and then incubated in the blocking buffer for an additional ten minutes at room temperature (RT) 60. Next, to the cells, either 0.4 Tg of monoclonal antibody to p-FLT-3 (Cell Signaling, Beverley, Mass.) 70 or isotype control antibody (IgG2b, Caltag, Burlingame, Calif.) 80 is added and cells are then incubated at RT for thirty minutes 90. […] After thirty minutes of incubation 110, cells are washed twice with PBS (1×) and resuspended in 400 TI of PBS (1×) 120 and analyzed by FACScan 130.

Hsp-90 = Hsp-90 acetylation, ATP binding and chaperone activities; assay type: cell-based; settings: earlier work of the inventors
[2] = tested on: FLT-3 and p-FLT-3 in RS cells; experiment: FLT-3 and p-FLT-3 levels in RS cells by Western and FCM analyses; assay type: cell-based, human
Experimental: as §1, §2, §3
To determine the p-FLT-3 expression, leukemia cells are fixed and permeabilized. […] After thirty minutes of incubation 110, cells are washed twice with PBS (1×) and resuspended in 400 TI of PBS (1×) 120 and analyzed by FACScan 130.

[3] = tested on: p-FLT-3, p-AKT and p-ERK1/2; experiment: Western analyses of FLT-3, AKT, ERK1/2 and their phospho forms in MV cells; assay type: cell-based, human
histone H3 and H4, p21 = experiment: Histone acetylation and p21 levels in AML cells; assay type: cell-based, human; settings: LAQ824 10 to 100 nM
MV4-11 (MV) cells = experiment: Cell cycle status and apoptosis of MV4-11 cells; assay type: cell-based, human

Row | SMILES | surface expression of p-FLT-3 [1] | FLT-3 and p-FLT-3 levels ([1]; Western and FCM analyses) | acetylation of Hsp-90, its ATP binding and chaperone activities (Hsp-90) | FLT-3 and p-FLT-3 levels [2] | levels of p-FLT-3, p-AKT and p-ERK1/2 ([3]; LAQ824 20 to 100 nM) | FLT-3, P-AKT and P-ERK levels ([3]; MV4-11 cells, immunoblots, FIG. 3) | acetylation of histone H3 and H4 (histone H3 and H4, p21) | p21 levels (histone H3 and H4, p21) | apoptosis (MV4-11 (MV) cells; MV4-11 cells, single agent, FIG. 2 and FIG. 3) | p-FLT-3, p-AKT and p-ERK1/2 levels ([3]; Western analyses, 20 to 200 nM PKC412) | apoptosis, MV compared with RS cells (MV4-11 (MV) cells; 20 to 200 nM PKC412, dose-dependent) | cell cycle G1 phase accumulation (MV4-11 (MV) cells; exposure to 20 to 200 nM PKC412)
1 | O=C(/C=C/c1ccc(CN(CCO)CCc2c[nH]c3ccccc23)cc1)NO [LAQ824] | attenuates cell surface p-FLY-3 expression | attenuated both FLT-3 and p-FLT-3 levels in a dose-dependent manner | induces acetylation of Hsp-90 and inhibition of its ATP binding and chaperone activities | attenuated both FLT-3 and p-FLT-3 levels in a dose-dependent manner | down regulated the levels of p-FLT-3, p-AKT and p-ERK1/2 | attenuates FLT-3, P-AKT, and P-ERK | induced the acetylation of histone H3 and H4 | increases p21; also recorded: increased p21 levels | induces apoptosis of MV4-11 cells; also recorded: inducing apoptosis of MV4-11 cells | – | – | –
2 | CO[C@@H]1[C@H](N(C)C(=O)c2ccccc2)C[C@H]2O[C@]1(C)n1c3ccccc3c3c4c(c5c6ccccc6n2c5c31)C(=O)NC4 [PKC412] | inhibited the surface expression of p-FLT-3 | – | – | – | – | – | – | – | – | marked attenuation of p-FLT-3, p-AKT and p-ERK1/2 | significantly more apoptosis of MV than RS cells | induced cell cycle G1 phase accumulation
